From US20230122967A1, “NOVEL COMPOUNDS AS INHIBITORS OF PCSK9” (SHENGKE PHARMACEUTICALS (JIANGSU) LTD., priority 2020, published 2023)

Tests used:
Assay type in all cases: cell-based
HepG2 cells [1] = assay: Cell viability assay (HepG2 Survival assay, CellTiter-Glo); settings: 24 hr, cellular ATP levels
Protocol: (§1) HepG2 cells (ATCC, Cat.: HB-8065) were maintained in Growth medium-Eagle's Minimum Essential Medium (Corning, 10-010-CVR), 10% FBS (Gibco, 10099-141), Penicillin (100 units/mL), Streptomycin ([…]). HepG2 cells were incubated at 37° C., 5% CO2. HepG2 cells were plated in black clear bottom 96-well plates (Corning, 3063) at 40,000 cells/well in 100 μL of growth media. After an overnight incubation, the culture media were changed to serum-free OptiMEM media (Gibco, 31985-062), 90 μL/well. Vehicle, PF-06446846 hydrochloride, berberine, or test compound was added to the culture media, 10 μL/well. After 24 hr cellular ATP levels were measured using CellTiter-Glo® 2.0 Assay (Promega, G9242).

PCSK9 = PCSK9 ELISA on HepG2 culture medium; settings: HepG2 cells, 24 hr
Protocol: as §1, with “flat” for “black clear”, “3599)” for “3063)”, “medium was harvested, and 10 μL of the medium” for “cellular ATP levels”, “used for the PCSK9 ELISA (R&D Systems, SPC900).” for “measured using CellTiter-Glo® 2.0 Assay (Promega, G9242).”

PCSK9 mRNA = assay: RT-Q-PCR analysis of PCSK9 mRNA in HepG2 cells; settings: Homo sapiens, 24 h, normalized to GAPDH, read-out: HepG2 Q-PCR PCSK9 mRNA level decrease (10 μM)
Protocol: HepG2 cells (ATCC, Cat.: HB-8065) were maintained in Growth medium-Eagle's Minimum Essential Medium (Corning, 10-010-CVR), 10% FBS (Gibco, 10099-141), Penicillin (100 units/mL), Streptomycin ([…]). HepG2 cells were incubated at 37° C., 5% CO2.
Cells were cultured in growth medium as described above and treated with the vehicle, Berberine or test compound for 24 h. The RNA was extracted using the Total RNA mini Kit (Tiangen, Beijing, China) according to the manufacturer's instructions. Reverse transcription was carried out using the High-Capacity cDNA reverse transcription kit (Thermo Fisher Scientific). Quantitative real-time PCR was performed using a reaction mixture containing cDNA, specific primers [PCSK9, 5′-[…]-3′ (forward) and 5′-[…]-3′ (reverse); GAPDH, 5′-[…]-3′ (forward) and 5′-[…]-3′ (reverse)] and Maxima SYBR Green/ROX qPCR Master Mix (Thermo Fisher Scientific). PCR amplification was carried out in a Real-Time PCR System. The real-time PCR conditions were 37° C. 10 min; 95° C. 10 min; 95° C. 15 s, 60° C. 30 s, 72° C. 30 s, 40 cycle. The amount of % RNA was normalized to the GAPDH level in the same samples.

HepG2 cells [2] = assay: Measurement of Dil-LDL uptake in HepG2 cells; settings: Homo sapiens, 24 h, 10 μM for 20 h, then 20 μg/mL Dil-LDL 4 h, read-out: LDL uptake 10 μM (fold of vehicle)
Protocol: HepG2 cells were maintained in MEM supplemented with 10% FBS. The cells were seeded in 96 well black plates at a density of 1×10^4 cells per well and grown to 70-80% confluence. Afterwards, cells were changed to serum-free Opti-MEM for 1 h and followed by incubation with 10 μM Berberine or compounds of the present disclosure for 20 h. Then, 20 μg/mL Dil-LDL was added and incubated at 37° C. in the dark for additional 4 h. Cells were extensively washed three times with PBS, and LDL uptake was determined on a fluorescence plate reader at an excitation wavelength of 520 nm and emission wavelength of 580 nm.

## CN(C(=O)CN(CC(=O)Nc1ccc(Oc2ccc(F)cc2)cc1)C(=O)c1ccc(C(F)(F)F)o1)C1Cc2ccccc2C1 [Compound 201-104]
HepG2 cells [1]
  HepG2 Survival assay (10 μM): 100%
PCSK9
  HepG2 PCSK9 ELISA (10 μM) % inhibition: 83%
PCSK9 mRNA
  inhibition at 10 µM: 86%
HepG2 cells [2]
  fold induction at 10 µM: 4.15

## CN(C(=O)CN(CC(=O)Nc1ccc(Oc2ccc(F)c(F)c2)cc1)C(=O)c1ccco1)C1Cc2ccccc2C1 [Compound 201-134]
HepG2 cells [1]
  HepG2 Survival assay (10 μM): 100%
PCSK9
  HepG2 PCSK9 ELISA (10 μM) % inhibition: 90%
PCSK9 mRNA
  inhibition at 10 µM: 92%
HepG2 cells [2]
  fold induction at 10 µM: 5.3

## CN(C(=O)CN(CC(=O)Nc1ccc(Oc2ccccc2)cc1)C(=O)c1ccc(C(F)(F)F)o1)C1Cc2ccccc2C1 [Compound 201-110]
HepG2 cells [1]
  HepG2 Survival assay (10 μM): 100%
PCSK9
  HepG2 PCSK9 ELISA (10 μM) % inhibition: 84%
PCSK9 mRNA
  inhibition at 10 µM: 88%
HepG2 cells [2]
  fold induction at 10 µM: 4.76

## CC(C)c1ccc(Oc2ccc(NC(=O)CN(CC(=O)NCc3ccccc3)C(=O)c3cc4cccc(F)c4[nH]3)cc2)cc1 [Compound 201-242]
HepG2 cells [1]
  HepG2 Survival assay (10 μM): 115%
PCSK9
  HepG2 PCSK9 ELISA (10 μM) % inhibition: 74%
PCSK9 mRNA
  inhibition at 10 µM: 77%
HepG2 cells [2]
  fold induction at 10 µM: 2.43

## CN(C(=O)CN(CC(=O)Nc1ccc(Oc2ccc(F)c(F)c2)cc1)C(=O)c1cc2cccc(F)c2[nH]1)C1Cc2ccccc2C1 [Compound 201-80]
HepG2 cells [1]
  HepG2 Survival assay (10 μM): 100%
PCSK9
  HepG2 PCSK9 ELISA (10 μM) % inhibition: 80%
PCSK9 mRNA
  inhibition at 10 µM: 88%
HepG2 cells [2]
  fold induction at 10 µM: 3.07

## CN(C(=O)CN(CC(=O)Nc1ccc(Oc2ccccc2)cc1)C(=O)c1cc2cccc(F)c2[nH]1)C1CCCC1 [Compound 201-70]
HepG2 cells [1]
  HepG2 Survival assay (10 μM): 100%
PCSK9
  HepG2 PCSK9 ELISA (10 μM) % inhibition: 76%
PCSK9 mRNA
  inhibition at 10 µM: 85%
HepG2 cells [2]
  fold induction at 10 µM: 1.69

## CN(Cc1ccccc1F)C(=O)CN(CC(=O)Nc1ccc(Oc2ccccc2)cc1)C(=O)c1ccc(C(F)(F)F)o1 [Compound 201-109]
HepG2 cells [1]
  HepG2 Survival assay (10 μM): 100%
PCSK9
  HepG2 PCSK9 ELISA (10 μM) % inhibition: 92%
PCSK9 mRNA
  inhibition at 10 µM: 90%
HepG2 cells [2]
  fold induction at 10 µM: 4.69

## CN(C(=O)CN(CC(=O)Nc1ccc(Oc2ccccc2)cc1)C(=O)c1cc2cccc(F)c2[nH]1)C1Cc2ccccc2C1 [Compound 201-31]
HepG2 cells [1]
  HepG2 Survival assay (10 μM): 100%
PCSK9
  HepG2 PCSK9 ELISA (10 μM) % inhibition: 48%
PCSK9 mRNA
  inhibition at 10 µM: 73%
HepG2 cells [2]
  fold induction at 10 µM: 2.07

## CC(C)c1ccc(Oc2ccc(NC(=O)CN(CC(=O)Nc3ccccc3)C(=O)c3ccc(C(F)(F)F)[nH]3)cc2)cc1 [Compound 201-265]
HepG2 cells [1]
  HepG2 Survival assay (10 μM): 93%
PCSK9
  HepG2 PCSK9 ELISA (10 μM) % inhibition: 71%
PCSK9 mRNA
  inhibition at 10 µM: 76%
HepG2 cells [2]
  fold induction at 10 µM: 1.57

## CN(C(=O)CN(CC(=O)Nc1ccc(Oc2ccc(F)c(F)c2)cc1)C(=O)c1ccc(C(F)(F)F)o1)C1Cc2ccccc2C1 [Compound 201-116]
HepG2 cells [1]
  HepG2 Survival assay (10 μM): 100%
PCSK9
  HepG2 PCSK9 ELISA (10 μM) % inhibition: 81%
PCSK9 mRNA
  inhibition at 10 µM: 88%
HepG2 cells [2]
  fold induction at 10 µM: 3.76

## CC(C)c1ccc(Oc2ccc(NC(=O)CN(CC(=O)NCc3ccccc3)C(=O)c3ccc(C(F)(F)F)o3)cc2)cc1 [Compound 201-245]
HepG2 cells [1]
  HepG2 Survival assay (10 μM): 101%
PCSK9
  HepG2 PCSK9 ELISA (10 μM) % inhibition: 76%
HepG2 cells [2]
  fold induction at 10 µM: 1.11

## N#Cc1cccc2cc(C(=O)N(CC(=O)Nc3ccccc3)CC(=O)Nc3ccc(Oc4ccc(C(F)(F)F)cc4)cc3)[nH]c12 [Compound 201-267]
HepG2 cells [1]
  HepG2 Survival assay (10 μM): 103%
PCSK9
  HepG2 PCSK9 ELISA (10 μM) % inhibition: 56%
PCSK9 mRNA
  inhibition at 10 µM: 79%
HepG2 cells [2]
  fold induction at 10 µM: 1.34

## COc1ccc(Oc2ccc(NC(=O)CN(CC(=O)Nc3ccccc3)C(=O)c3cc4cccc(F)c4[nH]3)cc2)cc1 [Compound 201-256]
HepG2 cells [1]
  HepG2 Survival assay (10 μM): 109%
PCSK9
  HepG2 PCSK9 ELISA (10 μM) % inhibition: 78%
PCSK9 mRNA
  inhibition at 10 µM: 75%
HepG2 cells [2]
  fold induction at 10 µM: 2.43

## CN(C(=O)CN(CC(=O)Nc1ccc(Oc2ccc(F)cc2)cc1)C(=O)c1cc2cccc(F)c2[nH]1)C1Cc2ccccc2C1 [Compound 201-29]
HepG2 cells [1]
  HepG2 Survival assay (10 μM): 100%
PCSK9
  HepG2 PCSK9 ELISA (10 μM) % inhibition: 61%
PCSK9 mRNA
  inhibition at 10 µM: 88.5%
HepG2 cells [2]
  fold induction at 10 µM: 3.07

## O=C(CN(CC(=O)Nc1ccc(Oc2ccc(C(F)(F)F)cc2)cc1)C(=O)c1cc2cccc(F)c2[nH]1)NCc1ccccc1 [Compound 201-205]
HepG2 cells [1]
  HepG2 Survival assay (10 μM): 90%
PCSK9
  HepG2 PCSK9 ELISA (10 μM) % inhibition: 85%
PCSK9 mRNA
  inhibition at 10 µM: 92%
HepG2 cells [2]
  fold induction at 10 µM: 1.1

## CC(C)c1ccc(Oc2ccc(NC(=O)CN(CC(=O)NCc3ccccc3)C(=O)c3cc4cccc(C#N)c4[nH]3)cc2)cc1 [Compound 201-253]
HepG2 cells [1]
  HepG2 Survival assay (10 μM): 110%
PCSK9
  HepG2 PCSK9 ELISA (10 μM) % inhibition: 61%
PCSK9 mRNA
  inhibition at 10 µM: 59%
HepG2 cells [2]
  fold induction at 10 µM: 1.77

## COc1ccc2cc3[n+](cc2c1OC)CCc1cc2c(cc1-3)OCO2 [Berberine, reference compound]
PCSK9
  HepG2 PCSK9 ELISA (10 μM) % inhibition: 52%
PCSK9 mRNA
  inhibition at 10 µM: 35%
HepG2 cells [2]
  fold induction at 10 µM: 2.54

## CC(C)c1ccc(Oc2ccc(NC(=O)CN(CC(=O)NC3CCCC3)C(=O)c3cc4cccc(F)c4[nH]3)cc2)cc1 [Compound 201-227]
HepG2 cells [1]
  HepG2 Survival assay (10 μM): 112%
PCSK9
  HepG2 PCSK9 ELISA (10 μM) % inhibition: 71%
PCSK9 mRNA
  inhibition at 10 µM: 56%
HepG2 cells [2]
  fold induction at 10 µM: 1.37

## CN(Cc1ccccc1)C(=O)CN(CC(=O)N(C)c1ccc(Oc2ccccc2)cc1)C(=O)c1cc2c(F)cccc2[nH]1 [Compound 201-52]
HepG2 cells [1]
  HepG2 Survival assay (10 μM): 100%
PCSK9
  HepG2 PCSK9 ELISA (10 μM) % inhibition: 45%
PCSK9 mRNA
  inhibition at 10 µM: 79%

## O=C(CN(CC(=O)Nc1ccc(Oc2ccccc2)cc1)C(=O)c1cc2cccc(F)c2[nH]1)NCc1ccccc1F [Compound 201-47]
HepG2 cells [1]
  HepG2 Survival assay (10 μM): 99%
PCSK9
  HepG2 PCSK9 ELISA (10 μM) % inhibition: 70%
PCSK9 mRNA
  inhibition at 10 µM: 90%

## O=C(CN(CC(=O)Nc1ccc(Oc2ccc(F)cc2)cc1)C(=O)c1cc2cccc(F)c2[nH]1)NCc1ccccc1F [Compound 201-45]
HepG2 cells [1]
  HepG2 Survival assay (10 μM): 100%
PCSK9
  HepG2 PCSK9 ELISA (10 μM) % inhibition: 60%
PCSK9 mRNA
  inhibition at 10 µM: 80%

## CN(C(=O)CN(CC(=O)NCc1ccccc1F)C(=O)c1cc2cccc(F)c2[nH]1)c1ccc(Oc2ccc(F)cc2)cc1 [Compound 201-46]
HepG2 cells [1]
  HepG2 Survival assay (10 μM): 100%
PCSK9
  HepG2 PCSK9 ELISA (10 μM) % inhibition: 33%
PCSK9 mRNA
  inhibition at 10 µM: 46%
